How the values were obtained:
[1] = system: human breast cancer (MCF-7 cell lines); experiment: MTT cytotoxicity assay, MCF-7; type: cell-based; conditions: MCF7, 48 h
Description: (§1) The synthesized compounds were studied for their cytotoxic activity against several human cancer cell lines, namely human osteosarcoma (HOS cell lines), human breast adenocarcinoma (MDA-MB-231 cell lines), human breast cancer (MCF-7 cell lines), human colorectal adenocarcinoma (Caco-2 cell lines) and human colon cell line (HCT-116 cell lines) using MTT assay at 100 µM, and the results were outlined as shown in Table 1.
(§2) Human osteosarcoma (HOS cell line), human breast adenocarcinoma (MDA-MB-231cell lines), human breast cancer (MCF-7 cell lines), human colorectal adenocarcinoma (Caco2 cell lines), human colon cell line (HCT-116 cell lines), normal human cell lines (BJ-1), and “a telomerase immortalized normal foreskin fibroblast cell line” were obtained from Karolinska Center, Department of Oncology and Pathology, Karolinska Institute and Hospital, Stockholm, Sweden.
(§3) Following culturing for 10 days, the cells were seeded at concentration of 10 × 10^3 cells per well in case of MCF-7 & MDA, 20 × 10^3 cells/well in a fresh complete growth medium in case of HCT-116, Caco2, & HOS and 40 × 10^3 cells/well in case of BJ-1 at 37 °C for 24 h in a water jacketed carbon dioxide incubator. After 48 h’ incubation, the medium was aspirated, and then 40 μl MTT salt (2.5 mg/mL) were added for a further 4 h; 200 μl 10% sodium dodecyl sulphate (SDS) in deionized water were added to each well and incubated overnight at 37 °C. The absorbance was measured at 595 nm with reference 690 nm. Doxorubicin was used as positive control, and 0.5% DMSO was used as negative control. IC50 values were calculated, using a probit analysis, and by utilizing the SPSS computer program (SPSS for Windows, statistical analysis software package/version 9/1989 SPSS Inc., Chicago, IL, USA).

[2] = system: human breast adenocarcinoma (MDA-MB-231 cell lines); experiment: MTT cytotoxicity assay, MDA-MB-231; type: cell-based; conditions: for cytotoxicity at 100 µM: MDA-MB-231, 48 h
Description: as §1, §2, §3

[3] = system: human colorectal adenocarcinoma (Caco-2 cell lines); experiment: MTT cytotoxicity assay, Caco-2; type: cell-based; conditions: Caco-2, 48 h
Description: as §1, §2, §3

[4] = system: human colon cell line (HCT-116 cell lines); experiment: MTT cytotoxicity assay, HCT-116; type: cell-based; conditions: for cytotoxicity at 100 µM: HCT-116, 48 h
Description: as §1, §2, §3

[5] = system: normal human skin cell lines BJ-1; experiment: Safety on normal human skin cells BJ-1 (MTT); type: cell-based; conditions: 100 µM
Description: To determine the selectivity and safety, all tested compounds were subjected to an assay for their safety upon normal human skin cell lines BJ-1 at a concentration of 100 µM.
as §2, §3

[6] = system: human osteosarcoma (HOS cell lines); experiment: MTT cytotoxicity assay, HOS; type: cell-based; conditions: for cytotoxicity at 100 µM: 48 h; for IC50: MTT, 0.78–100 µM, ± SD
Description: as §1, §2, §3

## CC(=O)O[C@@H]1[C@@H](OC(C)=O)[C@H](OCc2cn(CCCOc3ccc4c(-c5ccccc5)cc(=O)oc4c3)nn2)OC[C@H]1OC(C)=O [Compound 22]
[1]
  cytotoxicity at 100 µM: 91.9 ± 0.8%
[2]
  cytotoxicity at 100 µM: 97.1 ± 1.1%
other
  melting point: 127 to 128 °C
[3]
  cytotoxicity at 100 µM: 57.5 ± 0.5%
[4]
  cytotoxicity at 100 µM: 97.3 ± 0.8%
[5]
  Toxicity on normal skin cells BJ-1 (in words): high toxicity
[6]
  cytotoxicity at 100 µM: 90.6 ± 1.5%

## O=c1cc(-c2ccccc2)c2ccc(OCCCn3cc(CO[C@@H]4O[C@H](CO)[C@H](O)[C@H](O)[C@H]4O)nn3)cc2o1 [Compound 24]
[1]
  cytotoxicity at 100 µM: 88.2 ± 1.1%
[2]
  cytotoxicity at 100 µM: 97.7 ± 0.8%
other
  melting point: 190 to 191 °C
[3]
  cytotoxicity at 100 µM: 86.5 ± 0.9%
[4]
  cytotoxicity at 100 µM: 99.1 ± 0.8%
[5]
  Toxicity on normal skin cells BJ-1 (in words): high toxicity
[6]
  cytotoxicity at 100 µM: 97.6 ± 1.3%

## Cn1c(COc2ccc3c(-c4ccccc4)cc(=O)oc3c2)n[nH]c1=S [Compound 1a]
[1]
  cytotoxicity at 100 µM: 15.6 ± 0.2%
[2]
  cytotoxicity at 100 µM: 24.1 ± 1.4%
[3]
  cytotoxicity at 100 µM: 34.8 ± 1.3%
[4]
  cytotoxicity at 100 µM: 16.8 ± 0.1%
[6]
  cytotoxicity at 100 µM: 42.5 ± 1.2%

## [N-]=[N+]=NCCCCOc1ccc2c(-c3ccccc3)cc(=O)oc2c1 [Compound 19, 7-(4-Azidobutoxy)-4-phenyl-2H-chromen-2-one]
other
  melting point: 114 to 116 °C

## O=c1cc(-c2ccccc2)c2ccc(OCCCI)cc2o1 [Compound 16, 7-(3-Iodopropoxy)-4-phenyl-2H-chromen-2-one]
[1]
  cytotoxicity at 100 µM: 35.6 ± 0.8%
[2]
  cytotoxicity at 100 µM: 88.3 ± 1.4%
[2]; MDA-MB-231, MTT, 0.78–100 µM, ± SD
  IC50: 39.5 ± 0.9 µM
other
  melting point: 130 to 131 °C
[3]
  cytotoxicity at 100 µM: 54.3 ± 0.4%
[4]
  cytotoxicity at 100 µM: 12.8 ± 1.1%
[6]
  cytotoxicity at 100 µM: 91.2 ± 2.2%
  IC50: 26.2 ± 1.4 µM

## O=c1cc(-c2ccccc2)c2ccc(O)cc2o1 [Compound 15, 7-hydroxy-4-phenyl-2H-chromen-2-one]
[1]
  cytotoxicity at 100 µM: 36.8 ± 1.1%
[2]
  cytotoxicity at 100 µM: 34.5 ± 0.4%
[3]
  cytotoxicity at 100 µM: 46.1 ± 0.6%
[4]
  cytotoxicity at 100 µM: 89.3 ± 0.7%
[4]; HCT-116, MTT, 0.78–100 µM, ± SD
  IC50: 46 ± 2.2 µM
[6]
  cytotoxicity at 100 µM: 62.7 ± 1.5%
  IC50: 88.3 ± 2.2 µM

## CC(=O)OC[C@H]1O[C@@H](OCc2cn(CCCCOc3ccc4c(-c5ccccc5)cc(=O)oc4c3)nn2)[C@H](OC(C)=O)[C@@H](OC(C)=O)[C@H]1OC(C)=O [Compound 23]
[1]
  cytotoxicity at 100 µM: 35.2 ± 0.3%
[2]
  cytotoxicity at 100 µM: 28.6 ± 0.2%
other
  melting point: 118 to 119 °C
[3]
  cytotoxicity at 100 µM: 13.6 ± 0.4%
[4]
  cytotoxicity at 100 µM: 30.4 ± 0.7%
[6]
  cytotoxicity at 100 µM: 0%

## Cn1c(COc2ccc3c(-c4ccccc4)cc(=O)oc3c2)nnc1SCCOCCO [Compound 11, 4-Phenyl-7-((5-((2-(2-hydroxyethoxy)ethyl)thio)-4-methyl-4H-1,2,4-triazol-3-yl)methoxy)-2H-chromen-2-one]
[1]
  cytotoxicity at 100 µM: 86.7 ± 0.7%
[2]
  cytotoxicity at 100 µM: 62.4 ± 0.7%
other
  melting point: 155 to 156 °C
[3]
  cytotoxicity at 100 µM: 19.1 ± 0.4%
[4]
  cytotoxicity at 100 µM: 91.7 ± 1.1%
[5]
  Toxicity on normal skin cells BJ-1 (in words): high toxicity
[6]
  cytotoxicity at 100 µM: 39.7 ± 0.8%

## Cn1c(COc2ccc3c(-c4ccccc4)cc(=O)oc3c2)nnc1SCC(O)CO (stereo not drawn) [Compound 13, 4-Phenyl-7-((5-((2,3-dihydroxypropyl)thio)-4-methyl-4H-1,2,4-triazol-3-yl)meth-oxy)-2H-chromen-2-one]
[1]
  cytotoxicity at 100 µM: 51.9 ± 0.2%
[2]
  cytotoxicity at 100 µM: 0%
other
  melting point: 170 to 171 °C
[3]
  cytotoxicity at 100 µM: 16.6 ± 0.7%
[4]
  cytotoxicity at 100 µM: 26.1 ± 0.3%
[6]
  cytotoxicity at 100 µM: 2.8 ± 0.2%

## CCn1c(COc2ccc3c(-c4ccccc4)cc(=O)oc3c2)nnc1S[C@@H]1O[C@H](CO)[C@H](O)[C@H](O)[C@H]1O [Compound 9, 4-Phenyl-7-((4-ethyl-5-(1-(β-D-galactopyranosyl)thio)-4H-1,2,4-triazol-3-yl)meth-oxy)-2H-chromen-2-one]
[1]
  cytotoxicity at 100 µM: 37.8 ± 0.3%
[2]
  cytotoxicity at 100 µM: 27.7 ± 0.4%
other
  melting point: 184 to 185 °C
[3]
  cytotoxicity at 100 µM: 1.7 ± 0.1%
[4]
  cytotoxicity at 100 µM: 22.7 ± 0.9%
[6]
  cytotoxicity at 100 µM: 20.4 ± 0.4%

## Cn1c(COc2ccc3c(-c4ccccc4)cc(=O)oc3c2)nnc1S[C@@H]1O[C@H](CO)[C@H](O)[C@H](O)[C@H]1O [Compound 7, 4-Phenyl-7-((4-methyl-5-(1-(β-D-galactopyranosyl)thio)-4H-1,2,4-triazol-3-yl)methoxy)-2H-chromen-2-one]
[1]
  cytotoxicity at 100 µM: 14.3 ± 0.2%
[2]
  cytotoxicity at 100 µM: 15.5 ± 1.1%
[3]
  cytotoxicity at 100 µM: 35.7 ± 0.3%
[4]
  cytotoxicity at 100 µM: 16.6 ± 0.8%
[6]
  cytotoxicity at 100 µM: 7.3 ± 0.3%

## CCn1c(COc2ccc3c(-c4ccccc4)cc(=O)oc3c2)nnc1S[C@@H]1OC[C@@H](OC(C)=O)[C@H](OC(C)=O)[C@H]1OC(C)=O [Compound 6, 4-Phenyl-7-((4-ethyl-5-(1-(2,3,4-tri-O-acetyl-β-D-xylopyranosyl)thio)-4H-1,2,4-triazol-3-yl)methoxy)-2H-chromen-2-one]
[1]
  cytotoxicity at 100 µM: 14.3 ± 0.1%
[2]
  cytotoxicity at 100 µM: 7.4 ± 0.3%
other
  melting point: 127 to 128 °C
[3]
  cytotoxicity at 100 µM: 30.1 ± 0.1%
[4]
  cytotoxicity at 100 µM: 18.9 ± 0.6%
[6]
  cytotoxicity at 100 µM: 33.1 ± 0.2%

## CC(=O)O[C@@H]1[C@@H](OC(C)=O)[C@H](Sc2nnc(COc3ccc4c(-c5ccccc5)cc(=O)oc4c3)n2C)OC[C@H]1OC(C)=O [Compound 4, 4-Phenyl-7-((4-methyl-5-(1-(2,3,4-tri-O-acetyl-β-D-xylopyranosyl)thio)-4H-1,2,4-triazol-3-yl)methoxy)-2H-chromen-2-one]
[1]
  cytotoxicity at 100 µM: 17.1 ± 0.3%
[2]
  cytotoxicity at 100 µM: 36.9 ± 1.2%
other
  melting point: 132 to 133 °C
[3]
  cytotoxicity at 100 µM: 24.9 ± 0.6%
[4]
  cytotoxicity at 100 µM: 15 ± 0.6%
[6]
  cytotoxicity at 100 µM: 45.5 ± 0.6%

## CC(=O)OC[C@H]1O[C@@H](Sc2nnc(COc3ccc4c(-c5ccccc5)cc(=O)oc4c3)n2C)[C@H](OC(C)=O)[C@@H](OC(C)=O)[C@H]1OC(C)=O [Compound 3, 4-Phenyl-7-((4-methyl-5-(1-(2,3,4,6-tetra-O-acetyl-β-D-galactopyranosyl)thio)-4H-1,2,4-triazol-3-yl)methoxy)-2H-chromen-2-one]
[1]
  cytotoxicity at 100 µM: 9.8 ± 0.6%
[2]
  cytotoxicity at 100 µM: 15.4 ± 0.5%
other
  melting point: 211 to 213 °C
[3]
  cytotoxicity at 100 µM: 23.2 ± 1.1%
[4]
  cytotoxicity at 100 µM: 11.1 ± 0.4%
[6]
  cytotoxicity at 100 µM: 18.4 ± 0.7%

## CCn1c(COc2ccc3c(-c4ccccc4)cc(=O)oc3c2)n[nH]c1=S [Compound 1b]
[1]
  cytotoxicity at 100 µM: 88 ± 1.4%
[2]
  cytotoxicity at 100 µM: 69.7 ± 2.4%
[3]
  cytotoxicity at 100 µM: 77.7 ± 0.8%
[4]
  cytotoxicity at 100 µM: 81 ± 1.2%
[5]
  Toxicity on normal skin cells BJ-1 (in words): high toxicity
[6]
  cytotoxicity at 100 µM: 92 ± 2.1%

## CCn1c(COc2ccc3c(-c4ccccc4)cc(=O)oc3c2)nnc1S[C@@H]1O[C@H](COC(C)=O)[C@H](OC(C)=O)[C@H](OC(C)=O)[C@H]1OC(C)=O [Compound 5, 4-Phenyl-7-((4-ethyl-5-(1-(2,3,4,6-tetra-O-acetyl-β-D-galactopyranosyl)thio)-4H-1,2,4-triazol-3-yl)methoxy)-2H-chromen-2-one]
[1]
  cytotoxicity at 100 µM: 2.8 ± 0.2%
[2]
  cytotoxicity at 100 µM: 18.5 ± 0.6%
other
  melting point: 151 to 152 °C
[3]
  cytotoxicity at 100 µM: 20.6 ± 0.3%
[4]
  cytotoxicity at 100 µM: 7.6 ± 0.2%
[6]
  cytotoxicity at 100 µM: 24.9 ± 0.6%

## O=c1cc(-c2ccccc2)c2ccc(OCCCCI)cc2o1 [Compound 17, 7-(4-Iodobutoxy)-4-phenyl-2H-chromen-2-one]
[1]
  cytotoxicity at 100 µM: 38.5 ± 1.2%
[2]
  cytotoxicity at 100 µM: 7.7 ± 0.4%
other
  melting point: 143 to 145 °C
[3]
  cytotoxicity at 100 µM: 34.3 ± 0.3%
[4]
  cytotoxicity at 100 µM: 38.2 ± 0.7%
[6]
  cytotoxicity at 100 µM: 50.8 ± 0.7%

## [N-]=[N+]=NCCCOc1ccc2c(-c3ccccc3)cc(=O)oc2c1 [Compound 18, 7-(3-Azidopropoxy)-4-phenyl-2H-chromen-2-one]
other
  melting point: 110 to 111 °C
